The values that follow come from publication PMC10178848, “Modulating fast skeletal muscle contraction protects skeletal muscle in animal models of Duchenne muscular dystrophy” (The Journal of Clinical Investigation, 2023).

SMILES strings stand for the structures. Read-outs that look alike come from different tables or passages of the source.

Data set [1] deals with T1, DRD1 (Homo sapiens, UniProt P21728).
T1 construct: purchased Eurofins DiscoverX (KINOMEscan; SAFETYscan E/IC50 ELECT)
Kind of data set: SAFETYscan cAMP. The class given is cell-based. Also on record: dose or concentration left out as unconfirmed. The method, then: (§1) The specificity of EDG-5506 for fast skeletal myosin over other, unrelated proteins was confirmed using two off-target binding and activity screens. […] A second off-target panel (SAFETYscan E/IC50 ELECT, Eurofins DiscoverX) tested in vitro enzyme activity against 78 proteins, including GPCR, ion channel, kinases, nuclear hormone receptors, and transporters. In all assays, the IC50 of EDG-5506 was more than 10 μM (Supplemental Data File 1).

Data set [2] addresses T2, CDK3 (Homo sapiens, UniProt Q00526).
T2 construct: purchased Eurofins DiscoverX (KINOMEscan; SAFETYscan E/IC50 ELECT)
Kind of data set: KINOMEscan scanEDGE. The class given is binding. The conditions noted are these: 20 uM.

In data set [3] the target is T3, AKT2 (Homo sapiens, UniProt P31751).
T3 construct: purchased Eurofins DiscoverX (KINOMEscan; SAFETYscan E/IC50 ELECT)
Briefly: KINOMEscan scanEDGE. Format: binding. The settings on record: 20 uM.

Data set [4] has as its target T4, RIOK2 (Homo sapiens, UniProt Q9BVS4).
T4 construct: purchased Eurofins DiscoverX (KINOMEscan; SAFETYscan E/IC50 ELECT)
Briefly: KINOMEscan scanEDGE. Format: binding. The settings on record: 20 uM.

In data set [5] the test system is dystrophic golden retriever (GRMD) dogs. Briefly: Plasma CK activity in GRMD dogs. The class given is in vivo, dog. The settings on record: 7-month-old GRMD, 14 days oral gavage. On the procedure: Plasma from mice and dogs were analyzed for CK activity using standard protocols (Pointe Scientific, Thermo Fisher Scientific).
Studies were performed in two phases. In the first phase, GRMD (n = 4, female, 7 months old) were dosed PO daily with vehicle for 2 weeks, followed by a suspension of EDG-5506 (3 mg/kg daily for 2 days, then 1 mg/kg daily for 2 weeks) and then with vehicle for 2 weeks. Blood was drawn at regular intervals (2–3 draws during the vehicle baseline, 5–8 draws during the dosing period, and 2 draws during the vehicle washout). In a separate dosing period, the same 4 dogs (10 months old) were administered vehicle for 14 days with regular blood draws (6–9 for each dog across the 14-day period). CK activity (Pointe Scientific, Thermo Fisher Scientific) was measured from plasma. In the second phase, the same 4 dogs (15 months old) were fitted with a collar-bound activity monitor (Fitbark 2, Fitbark Inc.) as described previously ([42]), and baseline activity was recorded for 27 days before daily oral gavage with vehicle for 22 days. Three dogs were then dosed in a similar pattern to phase 1 with EDG-5506 (2 mg/kg for 4 days and then 2 mg/kg every other day for 7 days). The fourth dog was dosed with vehicle over the same period. […] Average daily activity (“Fitbark points”) and time performing various activities (play, rest, active) were recorded.

Data set [6] concerns the target T5, hERG (Homo sapiens, UniProt Q12809).
T5 construct: purchased Eurofins DiscoverX (KINOMEscan; SAFETYscan E/IC50 ELECT)
Briefly: SAFETYscan Ion Channel. The conditions noted are these: read-out: Max Response (%) (Agonist). The class given is cell-based. Also on record: dose or concentration left out as unconfirmed. The method, then:
as §1

For data set [7], the target named is T6, NAV1.5 (Homo sapiens, UniProt Q14524).
T6 construct: purchased Eurofins DiscoverX (KINOMEscan; SAFETYscan E/IC50 ELECT)
Briefly: SAFETYscan Ion Channel. Format: cell-based. Also on record: dose or concentration left out as unconfirmed. The conditions noted are these: read-out: Max Response (%) (Antagonist). On the procedure: as §1

In data set [8] the target is T7, NMDAR (1A/2B) (Homo sapiens, UniProt Q05586+Q13224).
T7 construct: purchased Eurofins DiscoverX (KINOMEscan; SAFETYscan E/IC50 ELECT)
T7 sequence (Q13224 27-1484, other chains not shown): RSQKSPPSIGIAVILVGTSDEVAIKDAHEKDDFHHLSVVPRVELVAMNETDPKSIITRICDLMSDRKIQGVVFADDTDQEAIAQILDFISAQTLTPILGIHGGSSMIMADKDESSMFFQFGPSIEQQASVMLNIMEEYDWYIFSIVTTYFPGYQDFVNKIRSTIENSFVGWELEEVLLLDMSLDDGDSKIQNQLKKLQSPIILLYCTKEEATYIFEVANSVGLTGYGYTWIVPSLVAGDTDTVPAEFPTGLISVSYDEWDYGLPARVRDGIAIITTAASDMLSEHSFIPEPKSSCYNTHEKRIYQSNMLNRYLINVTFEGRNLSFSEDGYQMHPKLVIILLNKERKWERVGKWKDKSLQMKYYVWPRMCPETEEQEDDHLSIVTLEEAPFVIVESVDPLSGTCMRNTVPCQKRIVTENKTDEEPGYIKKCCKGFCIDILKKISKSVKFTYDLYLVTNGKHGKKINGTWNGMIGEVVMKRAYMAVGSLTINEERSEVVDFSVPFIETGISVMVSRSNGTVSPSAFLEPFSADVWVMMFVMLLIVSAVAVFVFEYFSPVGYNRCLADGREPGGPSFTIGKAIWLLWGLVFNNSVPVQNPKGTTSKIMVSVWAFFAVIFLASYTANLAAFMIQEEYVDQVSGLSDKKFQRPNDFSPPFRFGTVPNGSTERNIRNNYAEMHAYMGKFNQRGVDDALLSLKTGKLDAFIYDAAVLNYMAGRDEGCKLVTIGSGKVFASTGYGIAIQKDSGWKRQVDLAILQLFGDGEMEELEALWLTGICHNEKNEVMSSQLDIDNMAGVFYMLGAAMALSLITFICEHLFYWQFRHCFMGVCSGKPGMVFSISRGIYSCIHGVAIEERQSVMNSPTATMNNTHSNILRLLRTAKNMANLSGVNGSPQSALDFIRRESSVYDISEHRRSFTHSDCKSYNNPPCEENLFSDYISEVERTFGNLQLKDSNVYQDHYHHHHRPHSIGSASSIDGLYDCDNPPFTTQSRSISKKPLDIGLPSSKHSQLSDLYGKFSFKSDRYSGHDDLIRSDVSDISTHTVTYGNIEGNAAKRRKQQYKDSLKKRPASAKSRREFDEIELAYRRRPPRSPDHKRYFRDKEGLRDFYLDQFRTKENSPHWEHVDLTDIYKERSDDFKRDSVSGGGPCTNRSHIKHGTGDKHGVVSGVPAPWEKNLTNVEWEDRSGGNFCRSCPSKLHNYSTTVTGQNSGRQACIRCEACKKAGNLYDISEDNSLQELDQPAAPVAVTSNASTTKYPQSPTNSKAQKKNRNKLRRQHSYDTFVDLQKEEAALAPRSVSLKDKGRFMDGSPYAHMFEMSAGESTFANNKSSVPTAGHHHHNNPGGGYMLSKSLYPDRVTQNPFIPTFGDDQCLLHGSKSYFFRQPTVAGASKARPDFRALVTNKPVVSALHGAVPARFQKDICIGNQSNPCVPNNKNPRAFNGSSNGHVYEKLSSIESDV
Kind of data set: SAFETYscan Ion Channel. The class given is cell-based. Also on record: dose or concentration left out as unconfirmed. On the procedure:
as §1

In data set [9] the target is T8, nAChR(a4/b2) (Homo sapiens, UniProt P17787+P43681).
T8 construct: purchased Eurofins DiscoverX (KINOMEscan; SAFETYscan E/IC50 ELECT)
T8 sequence (P43681 29-627 limits assumed): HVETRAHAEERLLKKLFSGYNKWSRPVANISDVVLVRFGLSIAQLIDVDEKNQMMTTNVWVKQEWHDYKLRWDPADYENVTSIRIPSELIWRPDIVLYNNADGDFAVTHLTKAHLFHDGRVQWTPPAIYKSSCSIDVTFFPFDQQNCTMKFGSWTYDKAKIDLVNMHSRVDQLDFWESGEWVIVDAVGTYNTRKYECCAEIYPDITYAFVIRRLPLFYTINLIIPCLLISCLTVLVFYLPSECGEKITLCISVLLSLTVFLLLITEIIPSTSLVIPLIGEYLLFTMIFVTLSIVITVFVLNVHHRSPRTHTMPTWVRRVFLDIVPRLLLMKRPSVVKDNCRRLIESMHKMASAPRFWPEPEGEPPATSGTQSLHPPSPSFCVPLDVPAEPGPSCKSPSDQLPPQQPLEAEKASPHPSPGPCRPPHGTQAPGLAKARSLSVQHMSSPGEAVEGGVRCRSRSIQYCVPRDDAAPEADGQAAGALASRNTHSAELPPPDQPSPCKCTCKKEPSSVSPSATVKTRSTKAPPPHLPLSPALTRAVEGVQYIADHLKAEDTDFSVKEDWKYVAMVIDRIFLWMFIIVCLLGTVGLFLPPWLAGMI
T8 sequence (P17787 26-502): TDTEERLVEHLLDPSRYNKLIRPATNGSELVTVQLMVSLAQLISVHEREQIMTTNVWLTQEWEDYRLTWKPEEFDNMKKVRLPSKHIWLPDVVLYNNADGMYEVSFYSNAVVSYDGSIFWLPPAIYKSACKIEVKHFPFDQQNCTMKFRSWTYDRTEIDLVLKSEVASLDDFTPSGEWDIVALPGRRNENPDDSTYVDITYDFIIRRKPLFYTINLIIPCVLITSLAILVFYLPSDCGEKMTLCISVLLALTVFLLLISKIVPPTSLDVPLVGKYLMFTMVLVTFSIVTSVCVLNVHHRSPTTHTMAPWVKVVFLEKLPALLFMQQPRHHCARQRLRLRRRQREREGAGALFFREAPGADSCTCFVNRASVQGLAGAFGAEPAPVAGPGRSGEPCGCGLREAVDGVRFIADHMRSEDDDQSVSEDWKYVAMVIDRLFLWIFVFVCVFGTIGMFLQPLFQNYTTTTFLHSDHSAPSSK
Kind of data set: SAFETYscan Ion Channel. The class given is cell-based. On the set-up: dose or concentration left out as unconfirmed. The method, then: as §1

Data set [10] concerns the target T9, KvLQT1/minK (Homo sapiens, UniProt P51787).
T9 construct: purchased Eurofins DiscoverX (KINOMEscan; SAFETYscan E/IC50 ELECT)
Kind of data set: SAFETYscan Ion Channel. Also on record: dose or concentration left out as unconfirmed. Format: cell-based. On the procedure:
as §1

The target of data set [11] is T10, HTR3A (Homo sapiens, UniProt P46098).
T10 construct: purchased Eurofins DiscoverX (KINOMEscan; SAFETYscan E/IC50 ELECT)
T10 sequence (P46098 24-478): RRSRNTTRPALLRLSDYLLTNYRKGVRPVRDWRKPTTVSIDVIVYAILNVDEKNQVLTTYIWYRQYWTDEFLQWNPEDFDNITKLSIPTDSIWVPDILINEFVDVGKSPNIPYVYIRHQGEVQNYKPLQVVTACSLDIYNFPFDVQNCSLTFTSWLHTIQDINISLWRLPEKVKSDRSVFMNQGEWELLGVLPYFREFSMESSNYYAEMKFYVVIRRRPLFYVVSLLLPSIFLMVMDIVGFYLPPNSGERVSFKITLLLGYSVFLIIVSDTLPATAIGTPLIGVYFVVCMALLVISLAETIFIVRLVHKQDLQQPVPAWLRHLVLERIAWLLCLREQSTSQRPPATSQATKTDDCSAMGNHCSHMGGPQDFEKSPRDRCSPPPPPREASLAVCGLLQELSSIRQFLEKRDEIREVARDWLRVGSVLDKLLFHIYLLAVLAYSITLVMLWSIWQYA
Kind of data set: SAFETYscan Ion Channel. The class given is cell-based. Also on record: dose or concentration left out as unconfirmed. The method, then: as §1

In data set [12] the target is T11, CAV1.2 (Homo sapiens, UniProt Q13936).
T11 construct: purchased Eurofins DiscoverX (KINOMEscan; SAFETYscan E/IC50 ELECT)
Briefly: SAFETYscan Ion Channel. Also on record: dose or concentration left out as unconfirmed. Format: cell-based. The conditions noted are these: read-out: Max Response (%) (Agonist). On the procedure: as §1

Data set [13] deals with T12, DYRK1B (Homo sapiens, UniProt Q9Y463).
T12 construct: purchased Eurofins DiscoverX (KINOMEscan; SAFETYscan E/IC50 ELECT)
T12 sequence (Q9Y463 whole entry): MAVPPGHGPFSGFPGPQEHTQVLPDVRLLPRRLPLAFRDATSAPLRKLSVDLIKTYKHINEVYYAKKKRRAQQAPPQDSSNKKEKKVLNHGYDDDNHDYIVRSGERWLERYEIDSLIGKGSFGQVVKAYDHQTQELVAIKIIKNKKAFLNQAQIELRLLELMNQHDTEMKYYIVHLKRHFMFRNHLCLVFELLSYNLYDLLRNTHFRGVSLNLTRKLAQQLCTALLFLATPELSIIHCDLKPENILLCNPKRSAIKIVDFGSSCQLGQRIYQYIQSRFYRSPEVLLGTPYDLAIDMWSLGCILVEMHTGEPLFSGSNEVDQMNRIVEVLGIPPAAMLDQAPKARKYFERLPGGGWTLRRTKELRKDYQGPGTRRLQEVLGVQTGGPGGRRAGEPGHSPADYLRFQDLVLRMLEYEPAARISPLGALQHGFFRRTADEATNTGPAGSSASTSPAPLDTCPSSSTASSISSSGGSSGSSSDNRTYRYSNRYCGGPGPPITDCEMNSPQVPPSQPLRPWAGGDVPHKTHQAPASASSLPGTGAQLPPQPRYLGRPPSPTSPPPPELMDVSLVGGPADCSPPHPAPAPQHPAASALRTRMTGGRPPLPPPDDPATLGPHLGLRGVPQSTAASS
Briefly: KINOMEscan scanEDGE. The class given is binding. The conditions noted are these: 20 uM.

In data set [14] the test system is WT or mdx mice. Briefly: Forelimb grip strength. Format: in vivo, mouse. The settings on record: single doses up to 10 mg/kg, 4 hours after oral administration. The method, then:
Prior to in vivo assessments, mice were dosed PO after a 2-hour fast with 10 mL/Kg suspensions. Grip strength and rotarod assessments were performed masked, 4 hours after dosing using published protocols ([66], [67]). Grip strength was performed with a Columbus Instruments Rodent Force Meter. Forepaw strength represented the average of 5 trials with 30-second rest periods, normalized by BW. Rotarod endurance was performed with a Columbus Instruments RotaMax. Mice were placed on the device drum at 1 rpm, which accelerated 1 rpm every 3 seconds to 12 rpm and a maximal time of 500 seconds. This was repeated 3 times with a 3-minute rest and total time reported. Voluntary wheel running performance was assessed with a customized system. Timestamped RPMs were measured 24 hours per day by infrared sensors, and a custom software calculated distance. Whole-body EBD was visualized after intravenous administration ([35]). EBD in PBS at 10 mg/mL was sterile filtered, and 50 μL/10 g BW was injected via tail vein. After 24 hours, animals were sacrificed, skin was removed and fixed in 4% formalin for 24 hours, and photographed using a Leica/Lumix camera.

Data set [15] deals with dystrophic golden retriever (GRMD) dogs. Briefly: Habitual activity in GRMD dogs (FitBark). The conditions noted are these: 2 mg/kg daily for 4 days, then every other day. Format: in vivo, dog. On the procedure: Studies were performed in two phases. In the first phase, GRMD (n = 4, female, 7 months old) were dosed PO daily with vehicle for 2 weeks, followed by a suspension of EDG-5506 (3 mg/kg daily for 2 days, then 1 mg/kg daily for 2 weeks) and then with vehicle for 2 weeks. Blood was drawn at regular intervals (2–3 draws during the vehicle baseline, 5–8 draws during the dosing period, and 2 draws during the vehicle washout). In a separate dosing period, the same 4 dogs (10 months old) were administered vehicle for 14 days with regular blood draws (6–9 for each dog across the 14-day period). CK activity (Pointe Scientific, Thermo Fisher Scientific) was measured from plasma. In the second phase, the same 4 dogs (15 months old) were fitted with a collar-bound activity monitor (Fitbark 2, Fitbark Inc.) as described previously ([42]), and baseline activity was recorded for 27 days before daily oral gavage with vehicle for 22 days. Three dogs were then dosed in a similar pattern to phase 1 with EDG-5506 (2 mg/kg for 4 days and then 2 mg/kg every other day for 7 days). The fourth dog was dosed with vehicle over the same period. Dogs were then returned to vehicle for a further 12 days. Average daily activity (“Fitbark points”) and time performing various activities (play, rest, active) were recorded.

For data set [16], the target named is T13, ABL1-nonphosphorylated (Homo sapiens, UniProt P00519).
T13 construct: purchased Eurofins DiscoverX (KINOMEscan; SAFETYscan E/IC50 ELECT)
Briefly: KINOMEscan scanEDGE. The class given is binding. The conditions noted are these: 20 uM.

In data set [17] the test system is fast rabbit psoas muscle fibers. Briefly: Skinned fiber force, rabbit psoas. The conditions noted are these: Oryctolagus cuniculus, maximal force at pCa 4.5, read-out: IC50, force in single skinned fibers. The method, then: Measurement of isometric force in skinned fibers from rabbit psoas, rat soleus, and rat cardiac trabeculae were performed as described previously ([65]) with an 802D fiber system (Aurora Scientific). Muscle bundles were thawed from –80°C and placed in relaxing solution. Single fibers were transferred to the testing apparatus with steel pins connected to a force transducer and motor (model 403A and 322C, Aurora Scientific), and collodion glue was applied. Temperature was set to 15°C for skeletal fibers and 30°C for rat cardiac trabeculae. The wells of the 802D were filled with different ratios of relaxing and activating pCa solutions as detailed previously ([65]). All control solutions contained 1% final DMSO. Traces were compared between control and compound runs to evaluate isometric force and calcium sensitivity.

The target of data set [18] is T14, PLK3 (Homo sapiens, UniProt Q9H4B4).
T14 construct: purchased Eurofins DiscoverX (KINOMEscan; SAFETYscan E/IC50 ELECT)
Briefly: KINOMEscan scanEDGE. The class given is binding. The conditions noted are these: 20 uM.

Data set [19] addresses T15, PKAC-alpha (Homo sapiens, UniProt P17612).
T15 construct: purchased Eurofins DiscoverX (KINOMEscan; SAFETYscan E/IC50 ELECT)
Briefly: KINOMEscan scanEDGE. The settings on record: 20 uM. Format: binding.

Where [20] appears, read: read-out: Max Response (%) (Agonist).
Where [21] appears, read: read-out: Max Response (%) (Antagonist).

As a reminder, the IC50 is the concentration needed to halve the response being measured.

T1 sequence (P21728 whole entry): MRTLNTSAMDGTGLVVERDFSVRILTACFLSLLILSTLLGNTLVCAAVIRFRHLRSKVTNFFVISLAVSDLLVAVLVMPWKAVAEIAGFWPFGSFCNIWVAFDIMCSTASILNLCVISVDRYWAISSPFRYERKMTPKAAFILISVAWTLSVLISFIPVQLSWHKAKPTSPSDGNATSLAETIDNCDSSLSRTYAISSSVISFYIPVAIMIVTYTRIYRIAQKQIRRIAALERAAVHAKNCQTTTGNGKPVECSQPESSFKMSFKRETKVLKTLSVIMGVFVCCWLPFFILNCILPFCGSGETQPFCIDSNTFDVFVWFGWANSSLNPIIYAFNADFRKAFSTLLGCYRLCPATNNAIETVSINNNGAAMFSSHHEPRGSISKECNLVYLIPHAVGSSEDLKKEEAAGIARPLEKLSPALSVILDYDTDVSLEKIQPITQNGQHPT
T4 sequence (Q9BVS4 whole entry): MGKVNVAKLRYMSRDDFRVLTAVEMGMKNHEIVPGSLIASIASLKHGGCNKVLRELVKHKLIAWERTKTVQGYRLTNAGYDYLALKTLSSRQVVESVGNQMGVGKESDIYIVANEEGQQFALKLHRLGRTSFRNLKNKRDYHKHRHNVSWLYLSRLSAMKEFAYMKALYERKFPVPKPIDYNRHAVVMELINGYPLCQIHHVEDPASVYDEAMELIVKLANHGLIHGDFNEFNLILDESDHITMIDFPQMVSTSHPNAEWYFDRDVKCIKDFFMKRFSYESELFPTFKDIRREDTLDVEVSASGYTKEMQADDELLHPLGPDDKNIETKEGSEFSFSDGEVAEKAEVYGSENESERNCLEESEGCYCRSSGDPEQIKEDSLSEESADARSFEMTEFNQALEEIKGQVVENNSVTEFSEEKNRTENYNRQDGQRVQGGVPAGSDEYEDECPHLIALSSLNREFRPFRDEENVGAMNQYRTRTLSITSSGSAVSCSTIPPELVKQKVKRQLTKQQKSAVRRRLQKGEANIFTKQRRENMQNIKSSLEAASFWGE
T2 sequence (Q00526 whole entry): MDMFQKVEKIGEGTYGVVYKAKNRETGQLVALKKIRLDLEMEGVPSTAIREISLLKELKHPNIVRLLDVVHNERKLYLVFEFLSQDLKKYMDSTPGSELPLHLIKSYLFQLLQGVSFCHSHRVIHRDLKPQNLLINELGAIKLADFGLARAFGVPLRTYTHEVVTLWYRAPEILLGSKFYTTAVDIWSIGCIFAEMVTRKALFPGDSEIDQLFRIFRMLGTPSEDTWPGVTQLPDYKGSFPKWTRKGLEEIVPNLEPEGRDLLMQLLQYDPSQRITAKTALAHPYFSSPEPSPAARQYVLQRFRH

`O=c1ccc(-c2cnc(OCC(F)(F)F)nc2)nn1Cc1cncc(F)c1` [EDG-5506]: the Emax in [1] (setting [20]) was determined as 3.04%; in data set [1] (setting [21]) it was 14.3%; in data set [6] it was 13.1%; in [7] it was 2.32%; in [8] (setting [20]) it was 0%; in data set [8] (setting [21]), 0%. Besides, the Emax was found to be 0% in [9] (setting [20]); 0% in data set [9] (setting [21]); 0% in data set [10] (setting [20]); 18.6% in [10] (setting [21]); 0.36% in data set [11] (setting [20]); 8.58% in data set [11] (setting [21]). Further, the Emax in data set [12] stood at 26.5%. The “binding, % of control” value in data set [2] is on record as 100 % of control; in data set [3], 93 % of control; in [4], 80 % of control; in [13], 100 % of control; in data set [16], 96 % of control; in data set [18] it was 95 % of control. The “binding, % of control” value in data set [19] is reported as 100 % of control. Further, the “decrease in CK” value in data set [5] is listed as “more than 50%”. Besides, the grip strength entry in data set [14] is listed as “no effect”. Besides, the “improvement of average daily activity” value in [15] is reported as “more than 30%”. Also, the IC50 in data set [17] amounted to 700 nM.
